What all share (assay type): cell-based, human
For one assay, the system named is MCF-7 cells. Briefly: Cell cycle analysis (PI, flow cytometry). To be noted: 1 μM. The method, then:
Figure 10 Compound (A) 22b, (B) phenstatin 19c induced apoptosis in a time-dependent manner in MCF-7 cells. Cells were treated with either vehicle control [0.1% ethanol (v/v)] or compound 22b or phenstatin 19c (1 μM) for 24, 48, and 72 h). The data shown for the control vehicle and phenstatin are as we previously reported. Cells were fixed and stained with PI, followed by analysis using flow cytometry. Cell cycle analysis was performed on histograms of gated counts per DNA area (FL2-A). The number of cells with <2 N (sub-G1), 2 N (G0G1), and 4 N (G2/M) DNA content was determined with CellQuest software, BD CellQuest Pro. Values are represented as the mean ± SEM for three separate experiments. Two-way ANOVA (Bonferroni post-test) was used to test for statistical significance (*, p < 0.05; **, p < 0.01; ***, p < 0.001).
Cells (MCF-7 and MDA-MD 231) were seeded at a density of 1 × 10^5 cells/well in 6-well plates (volume of 3 mL per well) and treated with selected compound 22b and phenstatin (19c) (1 μM), as previously reported. The time points used were 24, 48, or 72 h. Ethanol was used as the vehicle. At each time point, the media was removed and then the well was carefully rinsed with PBS and TrypLE™ Express enzyme (200 µL) was added to detach the adherent cells. The cells were collected by trypsinization and were then centrifuged at 800× g for 15 min. Cells were washed with ice-cold phosphate-buffered saline (PBS) ×2 and fixed in ice-cold 70% ethanol for 14 h at −20 °C. Fixed cells were centrifuged at 800× g for 15 min. The samples were then treated with 12.5 µL of DNase-free RNAse A (10 mg/mL) together with […] of PI (1 mg/mL) at 37 °C for 30 min, vortexed, and wrapped in tin foil. The DNA content of cells (10,000 cells/selected experimental group) was determined by flow cytometry at 488 nm with a FACSCalibur flow cytometer (BD Biosciences, San Jose, CA, USA) using the CellQuest Software (Becton-Dickinson, East Rutherford, NJ, USA). Each experiment was performed on three separate occasions.

Assay [1] concerns MCF-7 breast cancer cells. The assay can be described thus: Annexin V/PI apoptotic assay. The protocol: (§1) Apoptotic cell death was monitored by flow cytometry using Annexin V and propidium iodide (PI) to determine the Annexin V and PI negative cells (Q4, healthy cells), Annexin V positive and PI negative cells (Q3, early apoptosis), Annexin V and PI positive cells (Q2, late apoptosis), and Annexin V negative and PI-positive cells (Q1, necrosis) cells. MCF-7 and MDA-MB-231 cells for this experiment were seeded in 6-well plates at a density of 1 × 10^5 cells/mL (3 mL). Following the protocol previously described, the cells were treated at 37 °C with either vehicle (0.1% (v/v) EtOH), phenstatin 19c, (0.1 μM and 0.5 μM), or 22b (0.1 μM, 0.5 μM and 1 μM) at the 48 h time point. Cells were harvested by centrifugation at 400× g using a temperature-controlled Sorvall centrifuge and then prepared for flow cytometric analysis. Cells were washed in Annexin V Binding Buffer 1X (binding buffer: 0.1 M 4-(2-hydroxyethyl)-1-piperazineethanesulfonic acid (HEPES), pH 7.4; 1.4 M NaCl; 25 mM CaCl2 diluted in dH2O, 0.5 mL), and incubated in the dark for 30 min on ice in Annexin V-containing binding buffer (1:100), 50 μL protected from light. Cells were then washed once in binding buffer and then re-suspended in a PI-containing binding buffer (1:1,000) (0.5 μg/mL, 500 μL) and immediately analyzed within 1 h to determine the populations produced. BD Accuri flow cytometer (BD Biosciences, 2350 Qume Dr, San Jose, CA, USA) and GraphPad Prism software were used for the analysis of the data (GraphPad Software, Inc., 2365 Northside Dr., Suite 560, San Diego, CA, USA).
(§2) Figure 11 Compound 22b induced apoptosis in (A) MCF-7 breast cancer cells and (B) MDA-MB-231 breast cancer cells. MCF-7 breast cancer cells (A) and MDA-MB-23 breast cancer cells (B) were treated with 22b (0.1, 0.5, and 1.0 μM) or phenstatin (19c) (0.1 μM and 0.5 μM) or control vehicle (0.1% ethanol (v/v)). The data shown for the control vehicle and phenstatin are as we previously reported. The apoptotic cell content was determined by staining with Annexin V-FITC and PI. […]

Assay [2] relates to MDA-MB-231 breast cancer cells. Briefly: Annexin V/PI apoptotic assay. The method, then:
as §1, §2

This is an account of results in PMC11769294, “(E)-1-(3-(3-Hydroxy-4-Methoxyphenyl)-1-(3,4,5-Trimethoxyphenyl)allyl)-1H-1,2,4-Triazole and Related Compounds: Their Synthesis and Biological Evaluation as Novel Antimitotic Agents Targeting Breast Cancer” (Pharmaceuticals, 2025).

As a reminder, the viability is the share of living cells, or the viability signal relative to a control.

Each structure is given as a SMILES string.

As to `COc1ccc(/C=C/C(c2cc(OC)c(OC)c(OC)c2)n2cncn2)cc1O` (centres unmarked) [Compound 22b, (E)-5-(3-(1H-1,2,4-Triazol-1-yl)-3-(3,4,5-trimethoxyphenyl)prop-1-en-1-yl)-2-methoxyphenol], the figures for the “cells in G2/M phase” value in the assay on MCF-7 cells (24 h), in the assay on MCF-7 cells (48 h) and with MCF-7 cells (72 h) were 35%, 26% and 23%, respectively. In addition, the “cells in apoptosis (sub-G1)” value with MCF-7 cells (24 h) is 14%; in the assay on MCF-7 cells (48 h), 23%; in the assay with MCF-7 cells (72 h), 31%. Moreover, the “cells undergoing apoptosis (early + late)” value in assay [1] (0.5 μM) is given as 21%; in assay [1] (1 μM), 33%. Also, the viability at 0.1 µM in assay [1] (Homo sapiens, MCF7, 0.1 μM, Figure 11A) is 82.8%; in assay [2] (Homo sapiens, 0.1 μM, Figure 11B) it was 92.8%. Besides, the viability at 0.5 µM in assay [1] (Homo sapiens, MCF7, 0.5 μM, Figure 11A) was 78.1%; in assay [2] (Homo sapiens, 0.5 μM, Figure 11B), 92.1%. In addition, the viability at 1 µM amounted to 60.6% in assay [1] (Homo sapiens, MCF7, 1 μM, Figure 11A) and 77.6% in assay [2] (Homo sapiens, 1 μM, Figure 11B). In addition, the cells in apoptosis in assay [2] (0.1 μM) is 5.9%; in assay [2] (0.5 μM) it was 6.5%; in assay [2] (1.0 μM) it was 20.8%.
